# Test results as given in patent US10865451B2, “Non-invasive blood based monitoring of genomic alterations in cancer” (Dana-Farber Cancer Institute, Inc., priority 2013, dated 2020).
# Tested on: advanced EGFR-mutant NSCLC
# Assay: Serial ddPCR plasma genotyping of patients on first-line erlotinib (NCT00997334) until RECIST progression
# Assay type: in vivo, human
# Protocol: For each eligible patient, plasma was collected during routine care either prior to first-line therapy or at a subsequent time when the cancer was progressing on therapy. Additional follow-up specimens were collected if possible during routine care. Each specimen was collected into one 10 mL EDTA-containing vacutainer and was spun into plasma within 4 hours of collection. Plasma cfDNA was extracted and frozen at −80 C until genotyping. Total DNA concentration in extracted plasma was measured via a modified quantitative PCR assay for human long interspersed element 1 (LINE-1).
# Each droplet is individually assigned a positive or negative value based on the fluorescent intensity. The amount of positives and negatives are read by a flow cytometer and are used to calculate the concentration of an allele. To minimize bias and to ensure the integrity of results, the laboratory was blinded to the tumor genotype when testing plasma specimens, but results were selectively unblinded for data analysis. Each plasma sample was analyzed in triplicate with an increasing quantity of input DNA (e.g. 1 μL, 2 μL, and 4 μL). Results were normalized to a mean concentration of mutant alleles per μL DNA input, and reported as copies of mutant allele per 100 μL of DNA, the approximate DNA quantity isolated from one blood specimen.
smiles,measurement,setting,value
C#Cc1cccc(Nc2ncnc3cc(OCCOC)c(OCCOC)cc23)c1 [erlotinib],patients exhibiting a plasma response (drop of plasma level of EGFR sensitizing mutation),9 analysed patients with EGFR exon 19 deletion and detectable pretreatment plasma genotype,9 patients
same,patients demonstrating a complete plasma response,of 9 analysed patients,8 patients
same,patients with plasma levels of mutant EGFR again detected at objective progression (plasma T790M also identified),"of 9 analysed patients, at RECIST progression",6 patients
